# Patent publication US6624140B1, “Synthetic peptides with antimicrobial and endotoxin neutralizing properties for management of the sepsis syndrome” (Academisch Ziekenhuis Bij de Universiteit van Amsterdam …, priority 1997, dated 2003)
# No end group written: not given here.
# Experiments:
# [1] = Double-immunodiffusion against Re-LPS; assay type: binding, Escherichia coli; details: 0.8% agarose, 16 h at 20° C.; data not shown
# Method: Double-immunodiffusion of the peptides of the invention against ‘rough’ R-type E. coli D31m4 Re-LPS (List Biological Laboratories Inc., Calif.) or the structurally more complex ‘smooth’ S-type E. coli 0111:B4 LPS (Sigma Chemical Co., Rockford, Ill.) was performed in 0.8% (w/v) agarose containing 50 mM Tris and 0.1% (w/v) Triton X100, pH 7.5. for 16 h at 20° C. PmB and BPI(85-102) were included as control compounds for comparative purposes. The microprecipitates formed were visualized by Coommassie brilliant blue staining. […] Since the amount of precipitate formed is a function of valency, the peptides of the invention appear to be capable of a high degree of intermolecular binding of LPS molecules via the Lipid A moieties. […] The degree of precipitation of endotoxin by the synthetic peptides according to the invention was determined by measurement of the optical density of insoluble complexes formed at 340 nm (FIG. 2). […] Binding characteristics of biotinylated derivatives of the synthetic peptides BP1, BP2, BP2.1 and the control peptide BPI(85-102) were determined on ELISA microtiter plates coated with E. coli D31m4 Lipid A. Specific binding of the biotinylated peptides to the immobilized Lipid A was determined by development with Streptavidin-HRP and 3, 5, 3′, 5′ tetra-methylbenzidine (TMB) substrate and expressed as the corrected optical density at 450 nm. […]
# [2] = Tolerability of i.p. peptide in mice; assay type: in vivo; details: 2.5 and 5 mg/Kg i.p.; 2 week observation; Swiss mice
# [3] = tested on: Escherichia coli strain 018:K1:H7 Bort; assay: Murine model of lethal peritonitis; assay type: in vivo, mice; details: at 7 days; 100 μg/mouse (4 mg/kg) 1 h after 10^4 CFU i.p.; two experiments combined
# Method: FIG. 14. Efficacy of synthetic peptide BP2 on survival in a murine model of lethal peritonitis. Outbred female Swiss-Webster mice of 7 to 8 weeks, weighing 28 to 30 g were administered a predetermined lethal dose of 104 colony forming units (CFU) of the pathogenic strain of live E. coli […] Bort organisms by intraperitoneal (i.p.) administration in 0.5 ml pyrogen-free saline. After a delay of 1 h after infection, treated groups of mice received synthetic BP2 peptide in p.f saline at a dosage of 100 μg/mouse (approximately 4 mg/kg) and negative control groups only saline. Survival was recorded at 12 or 24 h intervals during a 7 day period of observation. […]
# The efficacy of the peptides of the invention in the protection of experimental animals against the toxic effects of LPS or live pathogenic bacteria was investigated with the use of murine models of lethal endotoxemia and peritonitis Laboratory mice, which are normally tolerant to high doses of endotoxin and require a lethal dose (LD100) of approximately 1 mg, may be sensitized with Actinomycin D to 10,000×lower amounts of endotoxin for lethality. […] The survival of the treated animals was recorded at 24 h intervals during a seven day period of observation and compared with the control groups. […] The survival of the animals was recorded at 12 or 24 h intervals during a 7 day period of observation and compared with the control groups. […]
# [4] = Murine model of lethal endotoxemia; assay type: in vivo, mice; details: at 7 days; 5 mg/kg i.p. 20 min before Actinomycin D 800 μg/Kg plus LPS 5 μg/Kg; three experiments combined
# Method: FIG. 13. Efficacy of synthetic peptide BP2 on survival in a murine model of lethal endotoxemia. Outbred femal Swiss-Webster mice of 7 to 8 weeks, weighing 28 to 30 g were treated with BP2 peptide by intraperitoneal (i.p) administration of a dose of 5 mg/Kg in pyrogen-free saline. Twenty minutes later the mice were challenged by i.p administration of the sensitizing agent Actinomycin D at 800 μg/Kg plus lethal concentrations of purified E. coli 0111:B4 LPS at 5 or 11 μg/Kg. Control groups only received Actinomycin D plus LPS. Survival was recorded at 24 h intervals during a 7 day period of observation. The indicated values are the combined results of three independent experiments.
# The efficacy of the peptides of the invention in the protection of experimental animals against the toxic effects of LPS or live pathogenic bacteria was investigated with the use of murine models of lethal endotoxemia and peritonitis Laboratory mice, which are normally tolerant to high doses of endotoxin and require a lethal dose (LD100) of approximately 1 mg, may be sensitized with Actinomycin D to 10,000×lower amounts of endotoxin for lethality. […] The survival of the treated animals was recorded at 24 h intervals during a seven day period of observation and compared with the control groups. […]
Substance,precipitation of Re LPS [1],tolerability [2],survival [3],survival [4]
"Ile-Lys-Ile-Ser-Gly-Lys-Trp-Lys-Ala-Gin-Lys-Arg-Phe-Leu-Lys-Met-Ser-Gly-(Cys) (IKISGKWKAQKRFLKMSGC; listed as Homo sapiens) [BPI(85-102), reference compound]",considerably less,,,
"GKWKLFKKAFKKFLKILAC-OH [BP2, Gly-Lys-Trp-Lys-Leu-Phe-Lys-Lys-Ala-Phe-Lys-Lys-Phe-Leu-Lys-Ile-Leu-Ala-Cys]",,well tolerated with no adverse effects,78.5%,75%
